Data on ten molecules can be found in patent US8999956B2, “N-[(het)arylalkyl)] pyrazole(thio)carboxamides and their heterosubstituted analogues” (Bayer Intellectual Property GmbH, priority 2010, dated 2015).

Read-outs that look alike come from different tables or passages of the source.

One data set relates to Pyrenophora teres. Description: In vivo preventive test on Pyrenophora teres (barley). Particulars: 500 ppm of active ingredient, evaluated 7-9 days after inoculation. In short, it runs like this:
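Preventive test: young barley plants received a water-diluted spray of compound formulated with DMF solvent plus alkylaryl polyglycol ether emulsifier, at the stated rate. Inoculation with an aqueous spore suspension of Pyrenophora teres followed one day after spraying.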

Another data set deals with Septoria tritici. Description: In vivo preventive test on Septoria tritici (wheat). The settings on record: 500 ppm of active ingredient, evaluated 21 days after inoculation. In short, it runs like this: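 Compound formulated in N,N-dimethylacetamide with alkylaryl polyglycol ether emulsifier and diluted in water to the stated rate. Young wheat plants sprayed preventively; after the deposit dried, they were inoculated with a Septoria tritici spore suspension.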

In another data set the test system is Pyricularia oryzae. The settings on record: in vivo.
The next data set concerns Botrytis cinerea. Description: In vivo preventive test on Botrytis cinerea (beans). In short, it runs like this: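 Young bean plants sprayed preventively with compound in acetone/dimethylacetamide/emulsifier diluted in water; after drying, each leaf inoculated with 2 agar pieces bearing Botrytis cinerea. Kept dark at 20° C, 100% humidity; lesion size scored at 2 days as % efficacy (0% = untreated, 100% = no disease).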

The subject of data set [1] is Fusarium nivale (var. majus). The data set can be described thus: In vivo preventive test on Fusarium nivale (wheat). Particulars: 500 ppm of active ingredient, evaluated 5 days after inoculation. Here is the method: (§1) Solvent: 49 parts by weight of N,N-dimethylacetamide Emulsifier: 1 part by weight of alkylaryl polyglycol ether To produce a suitable preparation of active compound, 1 part by weight of active compound or active compound combination is mixed with the stated amounts of solvent and emulsifier, and the concentrate is diluted with water to the desired concentration. To test for preventive activity, young plants are sprayed with the preparation of active compound or active compound combination at the stated rate of application. After the spray coating has been dried, the plants are slightly injured by using a sandblast and afterwards they are sprayed with a conidia suspension of Fusarium nivale (var. majus).

The next data set relates to Puccinia triticina. Description: In vivo preventive test on Puccinia triticina (wheat). Particulars: Table K, 500 ppm of active ingredient, evaluated 8 days after inoculation.
For data set [2], the system named is Blumeria graminis fsp. hordei. The data set can be described thus: In vivo preventive test on Blumeria graminis (barley). Particulars: 500 ppm of active ingredient, evaluated 7 days after inoculation. Here is the method: as §1, with “dusted” for “slightly injured by using a sandblast and afterwards they are sprayed”, “spores” for “a conidia suspension”, “Blumeria graminis fsp. hordei.” for “Fusarium nivale (var. majus).”

In another data set the test system is Alternaria solani. The data set can be described thus: In vivo preventive test on Alternaria solani (tomato). The settings on record: 500 ppm of active ingredient, evaluated 7 days after inoculation. In outline: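 Preventive set-up: Alternaria solani spores, as aqueous suspension, applied to young plants one day after spraying. Spray contained active compound formulated with N,N-dimethylformamide and emulsifier, water-diluted to the desired application rate.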

Another data set deals with Uromyces appendiculatus. Description: In vivo preventive test on Uromyces appendiculatus (beans). Particulars: 100 ppm of active ingredient, evaluated 10 days after inoculation. In outline: (§2)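 Young plants sprayed preventively at the stated application rate with compound dissolved in acetone/N,N-dimethylacetamide plus alkylaryl polyglycol ether emulsifier and diluted with water to the desired concentration.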

Another data set has as its system Venturia inaequalis. Description: In vivo preventive test on Venturia inaequalis (apple scab). The settings on record: 100 ppm of active ingredient, evaluated 10 days after inoculation. In short, it runs like this: as §2
Another data set concerns Aspergillus parasiticus. Description: microbe, parasite or virus in culture. The data set is classed as cell-based.
The test system of data set [3] is aflatoxines produced by Aspergillus parasiticus. The data set can be described thus: microbe, parasite or virus in culture. The data set is classed as cell-based.
Another data set deals with Sphaerotheca fuliginea. Description: In vivo preventive test on Sphaerotheca fuliginea (cucumber). Particulars: 500 ppm of active ingredient, evaluated 7 days after inoculation. In short, it runs like this:
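Young cucumber plants sprayed with compound (in DMF with alkylarylpolyglycolether emulsifier, diluted in water) at the stated application rate. Inoculated one day later with aqueous Sphaerotheca fuliginea spore suspension. Plants then held in greenhouse at approximately 23° C and approximately 70% relative humidity.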

Another data set deals with Cochliobolus miyabeanus. Description: In vivo protective test on Cochliobolus miyabeanus (rice). The settings on record: Table M, 250 ppm of active ingredient, evaluated 4 days after inoculation.
The nature of data set [4]: log P by HPLC on reversed-phase column (EEC Directive 79/831 Annex V.A8). The data set is classed as physicochemical. Here is the method:
In table 1, the log P values were determined in accordance with EEC Directive 79/831 Annex V.A8 by HPLC (High Performance Liquid Chromatography) on a reversed-phase column (C18), using the method described below: Temperature: 40° C.; […]

A further data set relates to Leptosphaeria nodorum. The data set can be described thus: In vivo preventive test on Leptosphaeria nodorum (wheat). Particulars: 500 ppm of active ingredient, evaluated 7-9 days after inoculation. In outline: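 Plants were inoculated with aqueous L. nodorum spores one day after a protective spray. The spray contained the compound at the stated rate, as a water-diluted concentrate in N,N-dimethylacetamide plus alkylaryl polyglycol ether emulsifier.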

Another data set has as its system Phakopsora pachyrhizi. Description: In vivo protective test on Phakopsora pachyrhizi (soybeans). Particulars: Table N, 250 ppm of active ingredient, evaluated 11 days after inoculation.
The mark [5] stands for this setting: Table L, 500 ppm of active ingredient, lesion size 2 days after inoculation.

Regarding `CC(C)CC(C)C1CCCC1NC(=O)c1c(C(F)F)nn(C)c1F` (mixture of isomers) [Example 315], the Efficacy with Pyrenophora teres was determined as 100%; in the data set on Septoria tritici, 100%; in the data set with Pyricularia oryzae it was 95%; in the data set on Botrytis cinerea (setting [5]) it was 70%; in [1], 100%; in the data set on Puccinia triticina, 95%. The Efficacy in data set [2] came to 100%; in the data set on Alternaria solani, 100%; in the data set with Uromyces appendiculatus, 100%; with Venturia inaequalis it was 100%; in the data set on Sphaerotheca fuliginea, 71%; in the data set on Cochliobolus miyabeanus, 97%. The “% Inhibition of fungal growth at 50 μM” value with Aspergillus parasiticus (50 µM) came out at 100%. In [3], the “% Inhibition of Aflatoxin at 50 μM” value was 100%.

Regarding `CCCCC1CCCCC1NC(=O)c1c(C(F)F)nn(C)c1F` (single isomer, unassigned) [Example 329], the Efficacy with Pyrenophora teres was found to be 100%; in the data set with Septoria tritici, 100%; with Pyricularia oryzae it was 98%; with Botrytis cinerea (setting [5]), 99%; in [1], 100%; in the data set with Puccinia triticina it was 100%. In addition, the Efficacy worked out at 100% in data set [2]; 100% in the data set on Alternaria solani; 100% with Uromyces appendiculatus; 100% with Venturia inaequalis; 90% with Leptosphaeria nodorum; 100% in the data set with Sphaerotheca fuliginea. For the same molecule, the Efficacy with Cochliobolus miyabeanus is reported as 98%. This molecule also yielded a logP in data set [4] of 3.80 isomer A. The “% Inhibition of fungal growth at 50 μM” value with Aspergillus parasiticus (50 µM) amounted to 97%. Moreover, the “% Inhibition of Aflatoxin at 50 μM” value in data set [3] is recorded as 100%.

`CCCCC1CCCCC1NC(=O)c1c(C(F)F)nn(C)c1F` (single isomer, unassigned) [Example 330]: the Efficacy with Pyrenophora teres was determined as 100%; in the data set with Septoria tritici, 78%; with Pyricularia oryzae it was 80%; in [1] it was 100%; in the data set with Puccinia triticina it was 80%; in [2], 100%. Moreover, the Efficacy with Alternaria solani is on record as 95%; with Sphaerotheca fuliginea it was 88%; in the data set on Cochliobolus miyabeanus, 85%. For the same molecule, in [4], the logP was 4.06 isomer B. Moreover, in the data set on Aspergillus parasiticus (50 µM), the “% Inhibition of fungal growth at 50 μM” value is 87%. For the same molecule, in data set [3], the “% Inhibition of Aflatoxin at 50 μM” value amounted to 100%.

The molecule `CC(C)CC(C)C1CCCCC1NC(=O)c1c(C(F)F)nn(C)c1Cl` (single isomer, unassigned) [Example 334] displayed a logP in [4] of 4.75 isomer A. Moreover, the Efficacy with Septoria tritici is 100%; with Phakopsora pachyrhizi, 100%; in data set [1] it was 93%; in data set [2] it was 90%; in the data set on Uromyces appendiculatus it was 100%; with Venturia inaequalis it was 100%. In addition, in the data set on Aspergillus parasiticus (50 µM), the “% Inhibition of fungal growth at 50 μM” value came out at 90%. Moreover, in data set [3], the “% Inhibition of Aflatoxin at 50 μM” value was 100%.

Regarding `CCCC1CCCCC1NC(=O)c1c(C(F)F)nn(C)c1F` (single isomer, unassigned) [Example 344], the Efficacy is on record as 100% in the data set with Pyrenophora teres; 94% with Septoria tritici; 95% with Pyricularia oryzae; 100% in the data set with Botrytis cinerea (setting [5]); 100% in data set [1]; 100% in the data set with Puccinia triticina. The Efficacy in [2] stood at 100%; in the data set on Alternaria solani it was 100%; in the data set on Leptosphaeria nodorum it was 90%; in the data set on Sphaerotheca fuliginea it was 100%; with Cochliobolus miyabeanus, 95%. The molecule further gave a logP in [4] of 3.61 isomer B. The “% Inhibition of fungal growth at 50 μM” value in the data set on Aspergillus parasiticus (50 µM) turned out to be 89%. Moreover, in [3], the “% Inhibition of Aflatoxin at 50 μM” value worked out at 100%.

As for `CC(CCc1c(Cl)cc(Cl)cc1Cl)NC(=O)c1c(C(F)F)nn(C)c1F` (stereo not drawn) [Example 215], the Efficacy is 100% in the data set on Pyrenophora teres; 90% in the data set on Septoria tritici; 98% in the data set on Pyricularia oryzae; 71% in [1]; 100% in data set [2]; 95% in the data set on Alternaria solani. Further, the Efficacy worked out at 100% with Sphaerotheca fuliginea and 98% in the data set with Cochliobolus miyabeanus. In data set [4], this molecule had a logP of 4.29. The “% Inhibition of fungal growth at 50 μM” value in the data set with Aspergillus parasiticus was 100%. The “% Inhibition of Aflatoxin at 50 μM” value in [3] is 100%.

`CC(CCc1c(Cl)cc(Cl)cc1Cl)NC(=O)c1c(C(F)F)nn(C)c1Cl` (stereo not drawn) [Example 216]: the Efficacy in the data set on Pyrenophora teres was determined as 100%; in the data set with Septoria tritici, 100%; with Pyricularia oryzae, 95%; in data set [1], 93%; with Puccinia triticina it was 78%; in the data set with Sphaerotheca fuliginea it was 100%. In the data set on Cochliobolus miyabeanus, this molecule displayed an Efficacy of 90%. For the same molecule, the logP in data set [4] was determined as 4.53. Moreover, the “% Inhibition of fungal growth at 50 μM” value in the data set with Aspergillus parasiticus is recorded as 100%. For the same molecule, the “% Inhibition of Aflatoxin at 50 μM” value in data set [3] worked out at 100%.

For `CON(C(=O)c1c(C(F)F)nn(C)c1F)C(C)CCc1c(Cl)cc(Cl)cc1Cl` (stereo not drawn) [Example 217], the Efficacy in the data set on Pyrenophora teres is recorded as 100%; with Septoria tritici, 100%; in the data set with Pyricularia oryzae, 97%; in data set [1], 100%; in the data set on Puccinia triticina it was 89%; in data set [2] it was 100%. For the same molecule, the Efficacy in the data set on Venturia inaequalis amounted to 100%; with Leptosphaeria nodorum, 78%; in the data set with Sphaerotheca fuliginea, 100%; with Cochliobolus miyabeanus, 98%. Besides, the logP in data set [4] was found to be 4.77. The “% Inhibition of fungal growth at 50 μM” value in the data set on Aspergillus parasiticus is recorded as 100%. Moreover, the “% Inhibition of Aflatoxin at 50 μM” value in data set [3] worked out at 100%.

As for `Cn1nc(C(F)F)c(C(=O)N(CC2CCCCC2c2ccccc2)C2CC2)c1F` (stereo not drawn) [Example 240], the Efficacy is on record as 100% in the data set with Pyrenophora teres; 100% with Septoria tritici; 85% in the data set with Phakopsora pachyrhizi; “at least 95%” in the data set on Botrytis cinerea (500 ppm of active ingredient, lesion size 2 days after inoculation); 95% in the data set on Botrytis cinerea (Table L2, dose 500 ppm, comparison with des-fluoro analogues); 95% with Botrytis cinerea (setting [5]). For the same molecule, the Efficacy in data set [1] is on record as 71%; with Puccinia triticina, 95%; in [2], 100%; in the data set with Alternaria solani, 100%; with Uromyces appendiculatus it was 100%; with Venturia inaequalis, 100%. The Efficacy in the data set with Leptosphaeria nodorum came out at 70%. The logP in [4] worked out at 4.31. For the same molecule, the “% Inhibition of fungal growth at 50 μM” value in the data set on Aspergillus parasiticus was 98%. The “% Inhibition of Aflatoxin at 50 μM” value in data set [3] stood at 100%.

For the molecule `CCCCC1CCCC1NC(=O)c1c(C(F)F)nn(C)c1F` (stereo not drawn) [Example 306], the Efficacy is reported as 100% with Pyrenophora teres; 95% in the data set on Pyricularia oryzae; 94% in the data set on Botrytis cinerea (setting [5]); 100% in data set [1]; 95% in the data set on Puccinia triticina; 100% in data set [2]. Also, the Efficacy in the data set on Alternaria solani amounted to 100%; in the data set on Uromyces appendiculatus it was 70%; with Venturia inaequalis, 99%; in the data set on Sphaerotheca fuliginea, 95%; with Cochliobolus miyabeanus, 95%. The same molecule came in with a logP in data set [4] of 3.59. For the same molecule, the “% Inhibition of fungal growth at 50 μM” value with Aspergillus parasiticus is recorded as 100%. The “% Inhibition of Aflatoxin at 50 μM” value in data set [3] was 100%.
